# Assay results reported in patent US6492421B1, “Substituted phenylalanine type compounds which inhibit leukocyte adhesion mediated by VLA-4” (Athena Neurosciences, Inc., priority 1997, dated 2002).
# Square brackets hold non-standard residues; d marks the D form. Side chains are listed from the residue outwards. Peptide text beside a SMILES is read from it. * marks the point of attachment. Phe(4-NH2) = Nc1ccc(C[C@H](N)C(=O)O)cc1; Tos = Cc1ccc(S(=O)(=O)*)cc1; Boc = CC(C)(C)OC(=O)*; Cam = NC(=O)C*
# Test system: Experimental Autoimmune (or Allergic) Encephalomyelitis (“EAE”)
# Assay: In vivo evaluation: Experimental Autoimmune Encephalomyelitis (EAE) model
# Set-up: species or system rats or guinea pigs
# Conditions: treatment began on Day 8; 10 mg/kg to 200 mg/kg, bid, for five days; SC, PO or IP
row,Compound,"active in EAE model (delayed the onset of symptoms, e.g., clinical scores no greater than 2 or slowed body weight loss as compared to the control)"
1,"Cc1ccc(S(=O)(=O)N2CCC[C@H]2C(=O)N[C@@H](Cc2ccc(-c3ccccc3C(=O)O)cc2)C(=O)O)cc1 [Example 12, N-(Toluene4-sulfonyl)-L-prolyl-4-[2-(carboxy)phenyl]-L-phenylalanine]",active
2,"Cc1ccc(S(=O)(=O)N2CCC[C@H]2C(=O)N[C@@H](Cc2ccc(NC(=O)[C@@H](C)NC(=O)OC(C)(C)C)cc2)C(=O)O)cc1 [Example 5, N-(Toluene-4-sulfonyl)-L-prolyl-4-[(N-tert-butoxylcarbonyl-D-alanyl)amino]-L-phenylalanine] (Tos-Pro-[Phe(4-NH2)]([dA-Boc])-OH)",active
3,"N-(Toluene-4-sulfonyl)-L-(5,5-dimethyl)thiaprolyl-4-[2-(N,N-dimethylamino)ethoxy]-L-phenylalanine [Example 20]",active
4,"Cc1ccc(S(=O)(=O)N2CCC[C@H]2C(=O)N[C@@H](Cc2ccc(OCCCN(C)C)cc2)C(=O)O)cc1 [Example 18, N-(Toluene-4-sulfonyl)-L-prolyl-4-[3-(N,N-dimethylamino)propoxy]-L-phenylalanine]",active

# Test system: not given
# Assay: not given
# Conditions: not given
row,Compound,melting point [°C]
1,"COC(=O)[C@H](Cc1ccc(N(CCCN(C)C)S(=O)(=O)C(F)(F)F)cc1)NC(=O)[C@@H]1CCCN1S(=O)(=O)c1ccc(C)cc1 [Example 16, N-(Toluene-4-sulfonyl)-L-prolyl-L-4-{N-[3-(N,N-dimethylamino)propyl]-N-[trifluoromethanesulfonyl]amino}-L-phenylalanine Methyl Ester]",45 to 55
2,COC(=O)[C@H](Cc1ccc(OCCN2CCC(O)(c3ccccc3)CC2)cc1)NC(=O)[C@@H]1CCCN1S(=O)(=O)c1ccc(C)cc1,122 to 123

# Further lines, results first:
row,melting point [°C],Compound
1,195 to 196,"Cc1ccc(S(=O)(=O)N2CCC[C@H]2C(=O)N[C@@H](Cc2ccc(OCC(N)=O)cc2)C(=O)O)cc1 [Example 58, N-(Toluene-4-sulfonyl)-L-prolyl-4-[(aminocarbonyl)methoxy]-L-phenylalanine] (Tos-Pro-Tyr(Cam)-OH)"
2,70 to 73,"Cc1ccc(S(=O)(=O)N2CCC[C@H]2C(=O)N[C@@H](Cc2ccc(OCC(=O)O)cc2)C(=O)O)cc1 [Example 56, N-(Toluene-4-sulfonyl)-L-prolyl-4-[(carboxy)methoxy]-L-phenylalanine]"
3,> 200,"CN(C)CCCOc1ccc(C[C@H](NC(=O)[C@@H]2CCCN2S(=O)(=O)c2cc(Cl)sc2Cl)C(=O)O)cc1 [Example 27, N-(2,5-Dichlorothiophene-3-sulfonyl)-L-prolyl-4-[3-(N,N-dimethylamino)propoxy]-L-phenylalanine]"
4,105 to 109,"CCN(CC)CCOc1ccc(C[C@H](NC(=O)[C@@H]2CCCN2S(=O)(=O)c2ccc(C)cc2)C(=O)O)cc1 [Example 26, N-(Toluene-4-sulfonyl)-L-prolyl-4-[2-(N,N-diethylamino)ethoxy]-L-phenylalanine]"
5,88 to 89,"Cc1ccc(S(=O)(=O)N2CCC[C@H]2C(=O)N[C@@H](Cc2ccc(OCC(=O)NC(C)(C)C)cc2)C(=O)O)cc1 [Example 59, N-(Toluene-4-sulfonyl)-L-prolyl-4-[(N-tert-butylaminocarbonyl)methoxy]-L-phenylalanine]"
6,121 to 124,"Cc1ccc(S(=O)(=O)N2CCC[C@H]2C(=O)N[C@@H](Cc2ccc(OCCN(C(C)C)C(C)C)cc2)C(=O)O)cc1 [Example 23, N-(Toluene-4-sulfonyl)-L-prolyl-4-[2-(N,N-diisopropylamino)ethoxy]-L-phenylalanine]"
7,102 to 106,"Cc1ccc(S(=O)(=O)N2CCC[C@H]2C(=O)N[C@@H](Cc2ccc(OCCN3CCCCC3)cc2)C(=O)O)cc1 [Example 46, N-(Toluene-4-sulfonyl)-L-prolyl-4-[2-(piperidin-1-yl)ethoxy]-L-phenylalanine]"
8,> 200,"CN(C)CCCOc1ccc(C[C@H](NC(=O)[C@@H]2CCCN2S(=O)(=O)c2cccs2)C(=O)O)cc1 [Example 24, N-(Thiophene-2-sulfonyl)-L-prolyl-4-[3-(N,N-dimethylamino)propoxy]-L-phenylalanine]"
